Measurements reported in BindingDB's records for doi:10.1016/j.bmcl.2015.04.045 (Chungbuk National University, 2015).

Target: T1, Pancreatic triacylglycerol lipase (Sus scrofa, UniProt P00591)
T1 sequence (P00591 whole entry): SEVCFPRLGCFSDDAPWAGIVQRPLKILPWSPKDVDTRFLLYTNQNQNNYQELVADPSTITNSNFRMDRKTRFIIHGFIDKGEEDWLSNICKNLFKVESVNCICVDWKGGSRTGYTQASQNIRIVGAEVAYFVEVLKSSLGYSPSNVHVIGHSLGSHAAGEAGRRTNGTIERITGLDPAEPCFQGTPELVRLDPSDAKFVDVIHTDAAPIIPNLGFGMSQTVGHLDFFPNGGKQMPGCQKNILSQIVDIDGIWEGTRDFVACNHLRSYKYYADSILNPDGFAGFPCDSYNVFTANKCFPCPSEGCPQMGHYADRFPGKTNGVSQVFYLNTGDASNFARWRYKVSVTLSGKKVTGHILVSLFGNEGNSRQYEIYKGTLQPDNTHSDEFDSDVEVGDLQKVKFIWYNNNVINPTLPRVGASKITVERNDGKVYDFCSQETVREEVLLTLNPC
Test: Inhibition of porcine pancreatic lipase using p-nitrophenylbutyrate as substrate assessed as formation of p-nitrophenol preincubated for 15 mins followed by substrate addition measured after 15 mins

O=c1cc(O)cc2oc(-c3ccc(O)c(O)c3)c(O[C@@H]3O[C@H](CO)[C@@H](O)[C@H](O)[C@H]3O)c(O)c1-2 [Quercetin 3-O-beta-D-glucoside]
IC50: > 70 µM

O=c1cc(O)cc2oc(-c3ccc(O)cc3)c(O[C@@H]3O[C@H](CO)[C@@H](O)[C@H](O)[C@H]3O)c(O)c1-2 [3,4',5,7-Tetrahydroxyflavone-3-glucoside]
IC50: > 70 µM
